Measurements: US20060210520A1, “Macadamia lipid based surfactants and derivatives and process for preparing same” (Finetex, Inc., priority 2005, published 2006)

Assay: Analytical results of the Macadamia esters (Table I)
Format: physicochemical
Procedure: An analysis of the esters was conducted as to appearance, color, surface tension, spreading coefficient, freezing point, percentage of water, refractive index, and specific gravity.

Spreading Coeffecient (° C.) | Viscosity (CPS) | Interfacial Tension (25° C.) | Surface Tension (25° C.) | Substance
31.50 | 100 | 8.50 | 32.00 | C12-15 Pareth-7 Macadamiate
32.15 | 120 | 8.35 | 32.50 | Ceteareth-4 Macadamiate
32.75 | 40 | 7.75 | 31.5 | Isostearyl Macadamiate
34.00 | 80 | 7.00 | 31.0 | PPG-3 Myristyl Ether Macadamiate
